The text below walks through data of paper PMC9583304 (ACS Omega, 2022).

The target of this test is T1, porcine pancreatic lipase (Sus scrofa, UniProt P00591).
T1 sequence (P00591 1-450): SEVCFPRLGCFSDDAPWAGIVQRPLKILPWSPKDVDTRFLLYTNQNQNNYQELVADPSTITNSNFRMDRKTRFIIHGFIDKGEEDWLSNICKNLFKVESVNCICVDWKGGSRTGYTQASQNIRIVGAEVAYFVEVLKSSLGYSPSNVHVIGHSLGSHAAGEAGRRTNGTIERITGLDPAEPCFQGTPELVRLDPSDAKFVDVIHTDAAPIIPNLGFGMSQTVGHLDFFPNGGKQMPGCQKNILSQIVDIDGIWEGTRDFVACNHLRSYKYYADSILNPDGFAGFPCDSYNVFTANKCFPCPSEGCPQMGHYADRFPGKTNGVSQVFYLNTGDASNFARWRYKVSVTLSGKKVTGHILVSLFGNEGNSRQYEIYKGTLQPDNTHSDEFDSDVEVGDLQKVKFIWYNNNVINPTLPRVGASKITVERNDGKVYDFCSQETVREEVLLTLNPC
The test can be described thus: Pancreatic lipase assay. It is filed as biochemical.

`O=C(O[C@@H]1C=C[C@@H](OC(=O)c2ccccc2)[C@](O)(CO)[C@H]1O)c1ccccc1` (relative stereo) [Compound 1, (1R*,4R*,5S*,6S*)-5,6-dihydroxy-5-(hydroxymethyl)cyclohex-2-ene-1,4-diyl dibenzoate] registered an IC50 of 11.2 µM.

Usually IC50 stands for the midpoint of a concentration-inhibition curve. Read a high IC50 as lower potency.
